# How the values were obtained:
# [1] = test system: mechanical allodynia induced by spinal nerve ligation in rats; test: Rat (Chung) model of neuropathic pain, von Frey paw withdrawal threshold; type: in vivo; details: for Withdrawal threshold (g) at peak effect: spinal nerve ligation; for Effect on mechanical allodynia (in words): oral administration, three doses; for ED50: po, read-out: ED50 at peak effect (dose at which allodynia is reversed by 50%)
# Method: In this model, mechanical allodynia is induced by tight ligation of the left L5 spinal nerve.
# Male Wistar rats (150-175 g body weight at time of surgery) were employed in the study. Rats were placed on an elevated (˜40 cm) mesh floor in perspex boxes and the rats' withdrawal threshold to a mechanical stimulus (calibrated von Frey filaments) was measured using filaments of increasing force (2.6-167 mN). The von Frey filaments were applied to the plantar surface of the paw and the thershold response was determined using the up and down method. A positive response was noted if the paw was sharply withdrawn. A cut-off of 15 g was selected as the upper limit for testing. Following baseline measurements each animal was anaesthetised and the L5 spinal nerve tightly ligated. The animals were allowed to recover from the surgery for a period of at least three days. On the day of drug administration the paw withdrawal thresholds were re-measured (0 min). Immediately after this reading, the rats were dosed orally with vehicle or test compound. Readings were then made at intervals of 30, 60, 120, 180 and 240 min after compound administration.
# Data were expressed as mean±s.e.m. The time of maximum effect for each animal in the top dose group was determined and these values averaged to calculate the mean time of maximum effect. For analytical purposes the time of maximum effect, tmax was defined as the time point closest to this averaged value. Data at tmax were compared between groups using the Kruskal-Wallis one-way analysis of variance, a non-parametric statistical test. Each of the treatment groups were then compared against the vehicle group, using the non-parametric Dunn's test. The ED50 (dose at which allodynia is reversed by 50%) value was also calculated at tmax using non linear regression (sigmoidal dose response; variable slope) with constants of 0 and 15 g (cut-off) for the bottom and top, respectively (XLFit software).
# [2] = test system: tail flick latency in mice; test: Mouse tail flick assay of acute thermal pain; type: in vivo; details: for Tail Flick Latency: mouse; for Effect on tail flick latencies (in words): oral administration, three doses, mouse, 20, 40 and 60 min post administration
# Method: The tail flick test is used to evaluate the antinociceptive activity of test compounds in mice. Animals are placed on the tail flick apparatus and their tails exposed to a focused beam of radiant heat. The mice react to the noxious thermal stimulus by flicking their tail away from the heat source. The time taken for these responses to occur is measured (latency; s).
# Experiments were performed using male ICR mice weighing (25-32 g). In brief, animals were held in place on the tail flick apparatus (Ugo Basile, Italy) by means of a perspex restrainer and their tail was positioned over the heat source. The latency to flick the tail from the radiant heat source focussed 2.5 cm from the tip was determined before (baseline readings) and at regular intervals after administration of the vehicle or test compounds (compound 1, 5.6-55.6 μmol/kg p.o.; compound 2, 5.3-52.6 μmol/kg p.o.). A 12 seconds cut-off was employed to prevent tissue damage.
# Data are expressed as mean±s.e.m. and compared between groups using the Kruskal-Wallis one-way analysis of variance, a non-parametric statistical test. If statistical significance (P<0.05) is observed with this test, the vehicle group and each of the treatment groups is compared using the non-parametric Dunn's test.
# [3] = test system: mechanical hyperalgesia induced by complete Freund's adjuvant in rats; test: Rat CFA model of inflammatory pain, Randall-Sellito paw withdrawal threshold; type: in vivo; details: for % Attenuation of hyperalgesia (peak effect): 7 days after CFA, peak effect 30 min
# Method: In this model, inflammation is induced by subcutaneous injection of complete Freund's adjuvant (CFA) into the hind paw. The associated mechanical hyperalgesia is quantified by measuring the reduction in paw withdrawal threshold (PWT) to a mechanical compression of the paw.
# Experiments were in male Wistar rats weighing (130-180 g). In brief, the rats' paw withdrawal threshold (PWT) to a mechanical compression of the hind paw was measured (baseline reading) using a Randall-Sellito apparatus (Ugo Basile). A cut-off of 200 g was employed to minimise tissue damage to the paw. The animals were then lightly anaesthetised with isoflurane (1-3%) and CFA (0.1 ml·paw^−1) injected subcutaneously (s.c.) into the plantar surface of the left hind paw. The animals were then returned to their home cage and left for the inflammation to develop.
# Seven days after CFA injection, PWT's were re-measured (0 min) and immediately after this reading, rats were dosed orally with either vehicle or compound 2 (3-30 mg/kg). Readings were then made at 30 min and 2 h post drug administration.
# Data were plotted as mean±s.e.m. and compared between groups using the Kruskal-Wallis one-way analysis of variance, a non-parametric statistical test. […] The percent attenuation of mechanical hyperalgesia is calculated at time of peak effect (tmax)
# [4] = test system: tolerance development to the analgesic activity of morphine; details: Database WPI, Derwent abstract; cited from earlier work
structure (smiles),measurement,setting,value
"COc1cc(-c2nc3ccc(-c4cccc(CN(C)C)c4)cc3c(=O)n2CC(=O)NC(C)C)ccc1F [Compound 1, 2-[6-(3-Dimethylaminomethylphenyl)-2-(4-fluoro-3-methoxyphenyl)-4-oxo-4H-quinazolin-3-yl]-N-isopropylacetamide]",Withdrawal threshold (g) at peak effect,"[1]; 5.6 μmol/kg p.o., peak effect 120 min",4.6 ± 0.6 g
same,Withdrawal threshold (g) at peak effect,"[1]; 18.6 μmol/kg p.o., peak effect 120 min",5.6 ± 1.1 g
same,Withdrawal threshold (g) at peak effect,"[1]; 55.6 μmol/kg p.o., peak effect 120 min",11.4 ± 0.7 g
same,Effect on mechanical allodynia (in words),[1],reversed mechanical allodynia in a dose-dependent fashion
same,Time of peak anti-allodynic effect post drug administration,[1]; p.o.,120 min
same,ED50,[1]; at tmax,21.2 µmol/kg
same,Tail Flick Latency,"[2]; 5.6 μmol/kg p.o., 20 min post dose",3.5 ± 0.4 s
same,Tail Flick Latency,"[2]; 5.6 μmol/kg p.o., 40 min post dose",3.4 ± 0.2 s
same,Tail Flick Latency,"[2]; 5.6 μmol/kg p.o., 60 min post dose",3.5 ± 0.2 s
same,Tail Flick Latency,"[2]; 18.6 μmol/kg p.o., 20 min post dose",3.4 ± 0.3 s
same,Tail Flick Latency,"[2]; 18.6 μmol/kg p.o., 40 min post dose",3.5 ± 0.2 s
same,Tail Flick Latency,"[2]; 18.6 μmol/kg p.o., 60 min post dose",3.1 ± 0.2 s
same,Tail Flick Latency,"[2]; 55.6 μmol/kg p.o., 20 min post dose",3.3 ± 0.3 s
same,Tail Flick Latency,"[2]; 55.6 μmol/kg p.o., 40 min post dose",3.5 ± 0.3 s
same,Tail Flick Latency,"[2]; 55.6 μmol/kg p.o., 60 min post dose",3.3 ± 0.2 s
same,Effect on tail flick latencies (in words),[2],had no effect on tail flick latencies
CC(C)NC(=O)Cn1c(-c2cccc(Cl)c2)nc2ccc(OCCCN3CCCCC3)cc2c1=O [Compound 2],Withdrawal threshold (g) at peak effect,"[1]; 5.3 μmol/kg p.o., peak effect 30 min",4.8 ± 1.0 g
same,Withdrawal threshold (g) at peak effect,"[1]; 17.3 μmol/kg p.o., peak effect 30 min",6.7 ± 1.1 g
same,Withdrawal threshold (g) at peak effect,"[1]; 52.6 μmol/kg p.o., peak effect 30 min",9.8 ± 1.8 g
same,Effect on mechanical allodynia (in words),[1],reversed mechanical allodynia in a dose-dependent fashion
same,Time of peak anti-allodynic effect post drug administration,[1]; p.o.,30 min
same,ED50 at peak effect (dose at which allodynia is reversed by 50%),"[1]; p.o., at tmax",21.0 µmol/kg
same,% Attenuation of hyperalgesia (peak effect),[3]; 5.7 μmol/kg p.o.,31.5 ± 9.4%
same,% Attenuation of hyperalgesia (peak effect),[3]; 18.9 μmol/kg p.o.,43.1 ± 8.6 %
same,% Attenuation of hyperalgesia (peak effect),[3]; 56.6 μmol/kg p.o.,84.4 ± 12.0 %
same,Effect on mechanical hyperalgesia induced by CFA (in words),"[3]; oral administration 5.7, 18.9 or 56.6 μmol/kg",reversed mechanical hyperalgesia induced by CFA in a dose-dependent fashion
same,ED50 at peak effect (mechanical hyperalgesia),"[3]; p.o., CFA",19.2 µmol/kg
same,Time of peak anti-algesic effect post drug administration,"[3]; p.o., CFA",30 min
same,Tail Flick Latency,"[2]; 5.3 μmol/kg p.o., 20 min post dose",3.4 ± 0.2 s
same,Tail Flick Latency,"[2]; 5.3 μmol/kg p.o., 40 min post dose",3.7 ± 0.2 s
same,Tail Flick Latency,"[2]; 5.3 μmol/kg p.o., 60 min post dose",3.6 ± 0.1 s
same,Tail Flick Latency,"[2]; 17.3 μmol/kg p.o., 20 min post dose",3.6 ± 0.1 s
same,Tail Flick Latency,"[2]; 17.3 μmol/kg p.o., 40 min post dose",3.6 ± 0.1 s
same,Tail Flick Latency,"[2]; 17.3 μmol/kg p.o., 60 min post dose",3.1 ± 0.1 s
same,Tail Flick Latency,"[2]; 52.6 μmol/kg p.o., 20 min post dose",3.5 ± 0.2 s
same,Tail Flick Latency,"[2]; 52.6 μmol/kg p.o., 40 min post dose",3.5 ± 0.2 s
same,Tail Flick Latency,"[2]; 52.6 μmol/kg p.o., 60 min post dose",3.2 ± 0.2 s
same,Effect on tail flick latencies (in words),[2],had no effect on tail flick latencies
"COc1ccc(S(=O)(=O)N2C(=O)[C@@](c3ccccc3OC)(N3C[C@H](O)C[C@H]3C(=O)N(C)C)c3cc(Cl)ccc32)c(OC)c1 [Compound 3, reference compound]",Withdrawal threshold (g) at peak effect,"[1]; 3 μmol/kg p.o., peak effect 180 min",5.0 ± 1.0 g
same,Withdrawal threshold (g) at peak effect,"[1]; 10 μmol/kg p.o., peak effect 180 min",6.9 ± 1.3 g
same,Withdrawal threshold (g) at peak effect,"[1]; 30 μmol/kg p.o., peak effect 180 min",10.1 ± 1.4 g
same,Effect on mechanical allodynia (in words),[1],reversed mechanical allodynia in a dose-dependent fashion
same,Time of peak anti-allodynic effect post drug administration,[1]; p.o.,180 min
same,ED50,[1]; at tmax,10.6 µmol/kg
same,Effect on tolerance development to the analgesic activity of morphine (in words),[4],inhibits the tolerance development to the analgesic activity of morphine
